Laboratory results from patent US20040001845A1, “Cytotoxic T-cell epitopes of HIV-1 virus” (priority 2002, published 2004).
Like-named read-outs stand apart in the source and are kept apart here.

Legend:
HLA-A11 = assay: Association of peptides with HLA allele A11 (recognition by individuals expressing HLA-A11); assay type: cell-based, human
[1] = system: PBMC (HIV-1-specific CD8+ T cells) of subject AC-06; assay: IFN-γ Elispot assay of HIV-1-specific CD8+ T cell responses in subject AC-06; assay type: cell-based, human
[2] = subject AC-06, 0 months after infection
[3] = subject AC-06, 2 months after infection
[4] = subject AC-06, 6 months after infection
[5] = subject AC-06, 12 months after infection
[6] = subject AC-06, 18 months after infection
[7] = subject AC-06, 20 months after infection
[8] = subject AC-06, 24 months after infection
[9] = subject AC-06, 29.5 months after infection
[10] = subject AC-06, 34 months after infection

Row | Sequence | HLA (association with HLA allele A11; recognized by individuals expressing HLA-A11) (HLA-A11) | HLA (association with HLA allele A11; recognized by individuals expressing HLA-A11) (HLA-A11; listed as SEQ ID NO: 5) | magnitude of HIV-1-specific CD8+ T cell responses at the single epitope level [1, 2] | magnitude of HIV-1-specific CD8+ T cell responses at the single epitope level [1, 3] | magnitude of HIV-1-specific CD8+ T cell responses at the single epitope level [1, 4] | magnitude of HIV-1-specific CD8+ T cell responses at the single epitope level [1, 5] | magnitude of HIV-1-specific CD8+ T cell responses at the single epitope level [1, 6] | magnitude of HIV-1-specific CD8+ T cell responses at the single epitope level [1, 7] | magnitude of HIV-1-specific CD8+ T cell responses at the single epitope level [1, 8] | magnitude of HIV-1-specific CD8+ T cell responses at the single epitope level [1, 9] | magnitude of HIV-1-specific CD8+ T cell responses at the single epitope level [1, 10] | HLA (association with HLA allele A11; recognized by individuals expressing HLA-A11) (HLA-A11; listed as SEQ ID NO: 11) | HLA (association with HLA allele A11; recognized by individuals expressing HLA-A11) (HLA-A11; listed as SEQ ID NO: 8) | HLA (association with HLA allele A11; recognized by individuals expressing HLA-A11) (HLA-A11; listed as SEQ ID NO: 6)
1 | AIFQSSMTK [A3-ATK9] | All | recognized | 0 SFC/Million PBMC | 0 SFC/Million PBMC | 0 SFC/Million PBMC | 0 SFC/Million PBMC | 0 SFC/Million PBMC | 0 SFC/Million PBMC | 0 SFC/Million PBMC | 290 SFC/Million PBMC | 420 SFC/Million PBMC |  |  | 
2 | AVDLSHFLK [A3-ALK9] | All |  | 0 SFC/Million PBMC | 0 SFC/Million PBMC | 0 SFC/Million PBMC | 0 SFC/Million PBMC | 0 SFC/Million PBMC | 450 SFC/Million PBMC | 350 SFC/Million PBMC | 1200 SFC/Million PBMC | 1100 SFC/Million PBMC | recognized |  | 
3 | AVFIHNFKRK [A3-AK10] | All |  | 0 SFC/Million PBMC | 0 SFC/Million PBMC | 0 SFC/Million PBMC | 0 SFC/Million PBMC | 0 SFC/Million PBMC | 0 SFC/Million PBMC | 0 SFC/Million PBMC | 260 SFC/Million PBMC | 120 SFC/Million PBMC |  | recognized | 
4 | QIYPGIKVR [A3-QR9] | All |  | 0 SFC/Million PBMC | 0 SFC/Million PBMC | 0 SFC/Million PBMC | 0 SFC/Million PBMC | 0 SFC/Million PBMC | 760 SFC/Million PBMC | 1000 SFC/Million PBMC | 1200 SFC/Million PBMC | 840 SFC/Million PBMC |  |  | recognized
5 | RPMTYKAAL [B7-RL9] |  |  | 0 SFC/Million PBMC | 0 SFC/Million PBMC | 0 SFC/Million PBMC | 0 SFC/Million PBMC | 0 SFC/Million PBMC | 120 SFC/Million PBMC | 180 SFC/Million PBMC | 600 SFC/Million PBMC | 360 SFC/Million PBMC |  |  | 
6 | SPAIFQSSM [B7-SM9] |  |  | 0 SFC/Million PBMC | 0 SFC/Million PBMC | 0 SFC/Million PBMC | 0 SFC/Million PBMC | 0 SFC/Million PBMC | 90 SFC/Million PBMC | 130 SFC/Million PBMC | 1400 SFC/Million PBMC | 1000 SFC/Million PBMC |  |  | 
7 | SPRTLNAWV [B7-SV9] |  |  | 0 SFC/Million PBMC | 0 SFC/Million PBMC | 0 SFC/Million PBMC | 0 SFC/Million PBMC | 0 SFC/Million PBMC | 0 SFC/Million PBMC | 0 SFC/Million PBMC | 680 SFC/Million PBMC | 120 SFC/Million PBMC |  |  | 
8 | TPQDLNTML [B7-TL9] |  |  | 0 SFC/Million PBMC | 0 SFC/Million PBMC | 0 SFC/Million PBMC | 0 SFC/Million PBMC | 0 SFC/Million PBMC | 0 SFC/Million PBMC | 0 SFC/Million PBMC | 740 SFC/Million PBMC | 1300 SFC/Million PBMC |  |  | 
